Laboratory results as given in ChEMBL document CHEMBL3091451, “Function-regulating pharmacophores in a sulfonamide class of glucocorticoid receptor agonists” (Bioorg Med Chem Lett, 2013).
pIC50: −log10 of the molar value.

What was measured:
[1] = target: T1, Glucocorticoid receptor (Homo sapiens, UniProt P04150); experiment: Displacement of TAMRA-labeled dexamethasone from glucocorticoid receptor (unknown origin) by fluorescence polarization competitive binding assay
T1 sequence (P04150 whole entry): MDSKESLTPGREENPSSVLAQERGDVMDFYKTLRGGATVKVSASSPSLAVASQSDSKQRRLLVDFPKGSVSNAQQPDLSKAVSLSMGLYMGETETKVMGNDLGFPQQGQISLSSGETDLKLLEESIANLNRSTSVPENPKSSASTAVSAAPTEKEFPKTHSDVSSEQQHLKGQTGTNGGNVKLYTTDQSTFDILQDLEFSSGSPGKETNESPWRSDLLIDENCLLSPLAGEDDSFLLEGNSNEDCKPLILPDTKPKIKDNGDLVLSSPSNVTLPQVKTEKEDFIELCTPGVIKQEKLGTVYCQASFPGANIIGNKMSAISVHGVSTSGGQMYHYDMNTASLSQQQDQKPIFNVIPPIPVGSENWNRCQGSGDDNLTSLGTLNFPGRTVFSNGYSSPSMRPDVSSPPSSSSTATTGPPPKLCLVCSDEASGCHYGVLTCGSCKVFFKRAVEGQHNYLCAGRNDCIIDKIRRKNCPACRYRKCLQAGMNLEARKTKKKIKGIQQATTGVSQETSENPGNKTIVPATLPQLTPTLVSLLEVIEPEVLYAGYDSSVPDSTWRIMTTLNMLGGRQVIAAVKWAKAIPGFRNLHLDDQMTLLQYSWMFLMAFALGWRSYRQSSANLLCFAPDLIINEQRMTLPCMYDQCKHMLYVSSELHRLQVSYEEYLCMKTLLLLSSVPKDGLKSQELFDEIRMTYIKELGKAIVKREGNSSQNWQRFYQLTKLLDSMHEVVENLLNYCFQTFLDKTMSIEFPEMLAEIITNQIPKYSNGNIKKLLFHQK

[2] = target: T2, Progesterone receptor (Homo sapiens, UniProt P06401); experiment: Displacement of TAMRA-labeled mifepristone from progesterone receptor (unknown origin) by fluorescence polarization competitive binding assay
T2 sequence (P06401 whole entry): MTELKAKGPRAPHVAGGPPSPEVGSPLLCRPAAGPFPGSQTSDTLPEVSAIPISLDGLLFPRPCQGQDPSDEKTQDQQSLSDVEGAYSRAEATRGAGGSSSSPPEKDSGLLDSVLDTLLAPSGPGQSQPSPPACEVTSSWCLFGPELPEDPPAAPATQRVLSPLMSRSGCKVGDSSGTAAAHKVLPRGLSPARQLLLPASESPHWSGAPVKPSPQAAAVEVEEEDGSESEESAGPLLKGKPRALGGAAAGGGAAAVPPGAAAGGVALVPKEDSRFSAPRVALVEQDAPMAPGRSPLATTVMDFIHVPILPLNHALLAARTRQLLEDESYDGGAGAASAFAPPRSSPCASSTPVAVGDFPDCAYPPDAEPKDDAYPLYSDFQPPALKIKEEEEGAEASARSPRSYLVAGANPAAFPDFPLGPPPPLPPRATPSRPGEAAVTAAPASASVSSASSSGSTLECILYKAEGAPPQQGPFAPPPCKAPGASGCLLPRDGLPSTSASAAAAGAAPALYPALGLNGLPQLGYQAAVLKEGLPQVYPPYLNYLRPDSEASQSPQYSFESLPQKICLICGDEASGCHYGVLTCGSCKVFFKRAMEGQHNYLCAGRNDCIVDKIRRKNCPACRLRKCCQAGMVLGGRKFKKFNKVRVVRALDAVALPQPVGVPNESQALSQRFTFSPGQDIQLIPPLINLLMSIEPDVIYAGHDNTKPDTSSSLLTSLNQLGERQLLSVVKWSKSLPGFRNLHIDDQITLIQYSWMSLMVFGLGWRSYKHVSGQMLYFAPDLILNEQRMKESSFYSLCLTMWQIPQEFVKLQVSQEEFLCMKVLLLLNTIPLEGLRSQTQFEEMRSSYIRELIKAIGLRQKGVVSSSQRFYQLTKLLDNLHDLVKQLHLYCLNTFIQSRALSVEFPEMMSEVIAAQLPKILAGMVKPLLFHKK

[3] = target: T1, Glucocorticoid receptor; experiment: Agonist activity at glucocorticoid receptor in HFF assessed as inhibition of IL-1-induced IL-6 production after 24 hrs
[4] = target: T3, Mineralocorticoid receptor (Homo sapiens, UniProt P08235); experiment: Binding affinity to mineralocorticoid receptor (unknown origin) by fluorescence polarization competitive binding assay
T3 sequence (P08235 whole entry): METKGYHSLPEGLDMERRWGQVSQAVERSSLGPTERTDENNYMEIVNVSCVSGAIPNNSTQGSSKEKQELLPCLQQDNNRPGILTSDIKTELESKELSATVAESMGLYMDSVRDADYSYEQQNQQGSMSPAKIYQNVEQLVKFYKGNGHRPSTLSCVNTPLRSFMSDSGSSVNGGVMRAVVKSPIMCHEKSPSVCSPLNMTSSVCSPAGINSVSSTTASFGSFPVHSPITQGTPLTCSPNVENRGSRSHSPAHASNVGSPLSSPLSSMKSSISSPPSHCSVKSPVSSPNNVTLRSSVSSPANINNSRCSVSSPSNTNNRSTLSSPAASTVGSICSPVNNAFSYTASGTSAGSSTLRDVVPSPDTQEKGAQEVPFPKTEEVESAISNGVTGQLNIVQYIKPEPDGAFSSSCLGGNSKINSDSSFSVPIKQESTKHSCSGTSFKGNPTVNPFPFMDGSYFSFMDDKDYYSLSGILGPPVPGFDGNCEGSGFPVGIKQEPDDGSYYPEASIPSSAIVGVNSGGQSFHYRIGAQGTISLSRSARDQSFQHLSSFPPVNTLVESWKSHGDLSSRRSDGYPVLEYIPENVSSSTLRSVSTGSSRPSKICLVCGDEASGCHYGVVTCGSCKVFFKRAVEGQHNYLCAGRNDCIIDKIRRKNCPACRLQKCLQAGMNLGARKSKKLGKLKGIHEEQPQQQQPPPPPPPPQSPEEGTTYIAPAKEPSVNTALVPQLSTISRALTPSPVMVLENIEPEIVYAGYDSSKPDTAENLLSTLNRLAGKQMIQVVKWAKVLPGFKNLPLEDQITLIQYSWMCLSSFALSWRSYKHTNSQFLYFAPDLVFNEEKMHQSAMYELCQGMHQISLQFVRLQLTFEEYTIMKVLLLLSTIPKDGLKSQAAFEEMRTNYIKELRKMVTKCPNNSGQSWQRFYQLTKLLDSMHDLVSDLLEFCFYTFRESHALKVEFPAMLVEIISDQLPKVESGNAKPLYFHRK

[5] = organism: Homo sapiens; experiment: Selectivity ratio of IC50 for mineralocorticoid receptor (unknown origin) to IC50 for glucocorticoid receptor (unknown origin)
[6] = target: Cytochrome P450 3A4 (Homo sapiens, UniProt P08684); experiment: Inhibition of CYP3A4 (unknown origin) using 7-benzyloxy-4-trifluoromethylcoumarin as substrate; format: ADME
[7] = Half life in human liver microsomes; format: ADME
[8] = organism: Mus musculus; experiment: Antiinflammatory activity in mouse assessed as inhibition of LPS-stimulated TNFalpha production; format: functional
[9] = organism: Mus musculus; experiment: Antiarthritic activity in collagen antibody-induced arthritis mouse model; format: functional

Sequence of Cytochrome P450 3A4 (P08684 whole entry): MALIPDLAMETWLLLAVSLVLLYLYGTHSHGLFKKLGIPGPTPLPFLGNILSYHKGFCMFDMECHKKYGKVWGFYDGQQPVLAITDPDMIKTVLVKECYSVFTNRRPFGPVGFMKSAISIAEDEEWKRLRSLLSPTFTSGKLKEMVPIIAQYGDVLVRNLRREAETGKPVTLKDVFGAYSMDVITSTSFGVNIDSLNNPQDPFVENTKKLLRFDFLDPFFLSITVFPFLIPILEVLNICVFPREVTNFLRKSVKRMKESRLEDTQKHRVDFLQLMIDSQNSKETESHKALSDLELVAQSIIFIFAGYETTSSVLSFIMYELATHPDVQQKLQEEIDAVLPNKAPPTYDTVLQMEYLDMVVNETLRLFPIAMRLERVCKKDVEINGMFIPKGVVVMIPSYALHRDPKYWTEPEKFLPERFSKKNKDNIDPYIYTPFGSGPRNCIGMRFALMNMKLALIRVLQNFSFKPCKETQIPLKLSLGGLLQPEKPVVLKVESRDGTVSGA

| Structure (SMILES) | pIC50 [1] | pIC50 [2] | pIC50 [3] | pIC50 [4] | Ratio IC50 [5] | pIC50 [6] | half-life [7] [min] | ED50 [8] [mg/kg] | ED50 [9] [mg/kg] |
| --- | --- | --- | --- | --- | --- | --- | --- | --- | --- |
| Cc1cc(C)c(S(=O)(=O)NC(Cc2c[nH]c3cccc(C)c23)C(F)(F)F)c(C)c1 (stereo not drawn) | 7.74 | < 5.70 | < 5.70 | 7.10 | 1 |  |  |  |  |
| CC[C@@H](Cn1ccc2ccccc21)NS(=O)(=O)c1c(N)cc(Cl)cc1Cl | 8.70 | < 5.00 | < 5.70 | 6.29 |  | 6.24 | 3 |  |  |
| Nc1cc(Cl)cc(Cl)c1S(=O)(=O)NC(Cc1c[nH]c2ccccc12)C(F)(F)F (stereo not drawn) | 8.00 | < 5.70 | 7.25 | 6.57 |  |  |  |  |  |
| Cc1cc(C)c(S(=O)(=O)NC(Cc2c[nH]c3cc(C)ccc23)C(F)(F)F)c(C)c1 (stereo not drawn) | 7.43 | < 5.70 | < 5.70 | 6.85 | 1 |  |  |  |  |
| Cc1cc(C)c(S(=O)(=O)NC(CSc2ccccc2)C(F)(F)F)c(C)c1 (stereo not drawn) | 7.70 | 5.70 | < 5.00 | 6.55 |  |  |  |  |  |
| Cc1cc(C)c(S(=O)(=O)NC(Cc2c[nH]c3ccccc23)C(F)(F)F)c(C)c1 (stereo not drawn) | 7.82 | 5.44 | < 5.70 | 7.10 |  |  |  |  |  |
| Cc1cc(C)c(S(=O)(=O)NC(Cc2c[nH]c3c(C)cccc23)C(F)(F)F)c(C)c1 (stereo not drawn) | 7.70 | 5.23 | < 5.00 | 7.05 | 1 |  |  |  |  |
| CC[C@@H](Cn1cc(C#N)c2ccccc21)NS(=O)(=O)c1c(N)cc(Cl)cc1Cl | 9.00 | 5.82 | 8.15 | 6.48 | 330 | 5.24 | 3 | 10 | 100 |
| Cc1cc(C)c(S(=O)(=O)NC(Cn2cc(C#N)c3ccccc32)C(F)(F)F)c(C)c1 (stereo not drawn) | 7.82 | 6.28 | < 5.70 | 7.19 |  |  |  |  |  |
| Cc1cc(C)c(S(=O)(=O)NC(Cc2c[nH]c3cc(C#N)ccc23)C(F)(F)F)c(C)c1 (stereo not drawn) | 6.55 | 5.70 | < 5.00 | 6.55 | 1 |  |  |  |  |
| CC(Cc1c[nH]c2ccccc12)NS(=O)(=O)c1c(N)cc(Cl)cc1Cl (stereo not drawn) | 8.30 | < 5.70 | 6.92 | 6.29 | 102 |  |  |  |  |
| Cc1cc(C)c(S(=O)(=O)NC(Cn2ccc3ncccc32)C(F)(F)F)c(C)c1 (stereo not drawn) | 6.47 | < 5.00 | < 5.70 | 6.66 |  |  |  |  |  |
| Cc1cc(C)c(S(=O)(=O)NC(Cc2c[nH]c3ccc(C)cc23)C(F)(F)F)c(C)c1 (stereo not drawn) | 8.00 | 5.22 | 6.68 | 7.05 | 1 |  |  |  |  |
| CC(Cc1c[nH]c2ccccc12)NS(=O)(=O)c1c(Cl)cc(Cl)cc1Cl (stereo not drawn) |  |  | < 5.70 |  |  |  |  |  |  |
| CC[C@@H](Cn1cc(C)c2ccccc21)NS(=O)(=O)c1c(N)cc(Cl)cc1Cl | 8.70 | 5.30 | 8.00 | 6.59 |  | 6.03 | 2 |  |  |
| Cc1cc(C)c(S(=O)(=O)NC(Cc2c[nH]c3c(C#N)cccc23)C(F)(F)F)c(C)c1 (stereo not drawn) | 8.00 | 6.27 | 7.35 | 7.15 | 1 |  |  |  |  |
| Cc1cc(C)c(S(=O)(=O)NC(COc2ccccc2)C(F)(F)F)c(C)c1 (stereo not drawn) | 6.68 | 5.19 | < 5.00 | 6.47 |  |  |  |  |  |
| Cc1cc(C)c(S(=O)(=O)NC(Cn2ccc3c(C#N)cccc32)C(F)(F)F)c(C)c1 (stereo not drawn) | 7.22 | 6.15 | < 5.00 | 7.00 |  |  |  |  |  |

Continued, in another order:

| pIC50 [1] | pIC50 [2] | pIC50 [3] | pIC50 [4] | Ratio IC50 [5] | pIC50 [6] | half-life [7] [min] | Structure (SMILES) | ED50 [8] [mg/kg] | ED50 [9] [mg/kg] |
| --- | --- | --- | --- | --- | --- | --- | --- | --- | --- |
| 7.40 | 5.85 | < 5.70 | 6.54 |  |  |  | Cc1cc(C)c(S(=O)(=O)N[C@@H](C)Cc2c[nH]c3ccccc23)c(C)c1 |  |  |
| 7.02 | 5.49 | < 5.00 | 6.59 |  |  |  | Cc1cc(C)c(S(=O)(=O)NC(CNc2ccccc2)C(F)(F)F)c(C)c1 (stereo not drawn) |  |  |
| 6.49 | < 5.00 | < 5.00 | 6.68 | 1 |  |  | Cc1cc(C)c(S(=O)(=O)NC(Cc2c[nH]c3ccc(C#N)cc23)C(F)(F)F)c(C)c1 (stereo not drawn) |  |  |
| 7.46 | 5.46 | < 5.70 | 7.10 |  |  |  | O=S(=O)(NC(Cc1c[nH]c2ccccc12)C(F)(F)F)c1c(Cl)cc(Cl)cc1Cl (stereo not drawn) |  |  |
| 8.30 | 6.12 | 7.82 | 6.96 | 22 |  |  | Cc1cc(C)c(S(=O)(=O)NC(Cc2c[nH]c3c(C#N)cc(C)cc23)C(F)(F)F)c(C)c1 (stereo not drawn) |  |  |
| < 5.00 | < 5.00 |  | 6.77 |  |  |  | Cc1cc(C)c(S(=O)(=O)NC(Cc2c[nH]c3cccc(C#N)c23)C(F)(F)F)c(C)c1 (stereo not drawn) |  |  |
| 7.60 | 5.62 | < 5.00 | 6.92 |  |  |  | Cc1cc(C)c(S(=O)(=O)NC(Cn2ccc3ccccc32)C(F)(F)F)c(C)c1 (stereo not drawn) |  |  |
| 7.82 | 5.28 | < 5.70 | 6.33 |  |  |  | CC(C)(Cc1c[nH]c2ccccc12)NS(=O)(=O)c1c(N)cc(Cl)cc1Cl |  |  |
